{"source": "paper PMC9292235", "about": "“Pharmacokinetics and Metabolism of Ziritaxestat (GLPG1690) in Healthy Male Volunteers Following Intravenous and Oral Administration” (Clinical Pharmacology in Drug Development, 2021)", "key": {"[1]": {"experiment": "Metabolite profiling and identification in plasma, urine and feces", "format": "in vivo, human", "conditions": "for Mean Feces Region of Interest: components of one region share its value", "procedure": "(§1) Whole blood and plasma samples for total radioactivity and plasma sample concentrations of ziritaxestat were collected before dosing and at 0, 0.25, 0.5, 1, 1.5, 2, 3, 4, 6, 8, 10, 24, 48, 72, 96, 120, 144, 168, 192, and 216 hours after dosing. Plasma samples for metabolite identification and quantification were collected before dosing and at 1, 3, 6, 24, 48, 72, 96, and 144 hours after dosing. Urine and fecal samples for total radioactivity, metabolite identification, and quantification were collected before dosing through to 216 hours after dosing. Structural identification was attempted on any radioactive component that represented ≥10% of the circulating radioactivity in plasma or that accounted for >10% of the dose in ≥1 fecal and urine samples."}, "CYP1A2": {"system": "CYP1A2", "conditions": "0.1 to 30 μM incubated with human hepatocytes; background data in introduction, no reference given; cited from earlier work"}, "[2]": {"experiment": "Estimation of oral bioavailability fractions (fa, fg, fh)", "format": "in vivo, human", "from_the_text": "Contribution to clearance from nonhepatic routes was assumed to be minimal. fg was estimated assuming Fg=F/Fa/Fh ."}, "CYP3A4 [3]": {"system": "CYP3A4", "conditions": "0.1 to 30 μM incubated with human hepatocytes; background data in introduction, no reference given; cited from earlier work"}, "CYP3A4 [4]": {"system": "CYP3A4", "conditions": "human recombinant CYP, background data in introduction, no reference given, cited from earlier work"}, "[5]": {"experiment": "Part 1 absolute bioavailability: plasma PK after oral 600 mg ziritaxestat and 15-minute IV infusion of 100 μg 14C-ziritaxestat microtracer", "format": "in vivo, human", "conditions": "for F AUCt (absolute bioavailability) / F AUC∞ (absolute bioavailability): oral 600 mg vs IV 100 μg 14C-ziritaxestat; for F AUCt (absolute bioavailability): dose-normalized AUCt; for F AUC∞ (absolute bioavailability): dose-normalized AUC∞", "from_the_text": "Part 1 of the study was designed to assess the absolute bioavailability of ziritaxestat. An IV microtracer, a well‐established technique, was used.[21], [22] This design involved a 15‐minute infusion of a subtherapeutic 100‐μg IV ziritaxestat dose labeled with a microtracer (≤1000 nCi) of ^14C radioactivity, dosed at an anticipated time to reach maximum plasma concentration (tmax) of a preceding unlabeled therapeutic (600‐mg) oral dose (administered as three 200‐mg film‐coated tablets). The low‐dose IV formulation means that nonclinical local tolerability and IV toxicology studies can generally be avoided,[21], [22] which can be preferable when developing a single, fit‐for‐purpose IV formulation. Administering the IV microdose at tmax of the unlabeled therapeutic (600‐mg) oral dose of ziritaxestat ensured that the PK of the microdose remained representative of the therapeutic dose.\nGiven the low (microgram) levels of ziritaxestat expected in plasma, liquid chromatography–accelerated mass spectrometry (LC‐AMS) was used to quantify levels of ^14C‐ziritaxestat, whereas accelerated mass spectrometry (AMS) was used to quantify total radioactivity following the IV dose, achieving a lower limit of quantification (LLOQ) of 0.110 ng eq/mL and 0.0069 ng eq/mL, respectively. Concentrations of unlabeled parent in plasma were measured using liquid chromatography with tandem mass spectrometry (LC‐MS/MS), with an LLOQ of 1.00 ng/mL.\nSubjects were admitted to the clinic on day –1 (the evening before dosing) and remained onsite until 72 hours after dosing. On the morning of day 1, 30 minutes after the start of a standard breakfast, subjects received a single oral dose of 600‐mg ziritaxestat, followed 3.25 hours later by a 15‐minute IV infusion of 100 μg of ^14C‐ziritaxestat. Plasma samples for ziritaxestat concentrations were collected before dosing and at 0.25, 0.5, 1, 1.5, 2, 3, 3.25, 4, 5, 6, 8, 10, 12, 24, 48, and 72 hours after the oral dose. In addition, plasma samples for ^14C‐ziritaxestat, total radioactivity, and metabolite profiling were collected at 3.25, 3.33, 3.5, 3.75, 4, 4.25, 4.75, 5.25, 6, 7, 8, 10, 12, 24, 48, and 72 hours after the oral dose.\n(§2) Concentrations of ziritaxestat in human lithium heparin plasma samples were determined for both study parts by using an LC‐MS/MS method validated according to the requirements of the US Food and Drug Administration's Guidance for Industry and the European Medicines Agency's guidance on bioanalytical methods. The method involved isolating ziritaxestat and ziritaxestat‐d8 (internal standard) from 20 μL of human lithium heparin plasma by solid‐phase extraction performed on a CUBCX1 100‐mg 1‐mL cartridge (Screening Devices, Amersfoort, Netherlands). The extract sample was then evaporated to dryness under a stream of nitrogen at +50°C. The residue was reconstituted with 0.3 mL of a mixture of 25% acetonitrile in purified water containing 0.01% of ammonium hydroxide. Ten microliters of the clear supernatant were injected into the high‐performance liquid chromatography system (Shimadzu, Kyoto, Japan), operating in isocratic elution mode. Chromatographic separation was performed on an XBridge C18 column (100 × 4.6 mm, 3.5 μm; Waters Corp., Milford, Massachusetts). The aqueous mobile phase consisted of a mixture of 46.75% acetonitrile in purified water containing 0.02% of ammonium hydroxide. An API 4000 LC‐MS/MS system (SCIEX, Toronto, Canada) equipped with a TurboIonSpray probe operating in multiple‐reaction monitoring mode in positive mode was used for quantification. The precursor‐to‐product ion pairs at the mass‐to‐charge ratio were 589 to 256 and 597 to 264 for ziritaxestat and its internal standard, respectively.\nTotal radioactivity plasma concentrations for part 1 were determined using AMS analysis on a 1‐MV multielement accelerated mass spectrometer, model 4110 Bo (High Voltage Engineering Europa, Amersfoort, the Netherlands). […]"}, "CYP2C8": {"system": "CYP2C8", "conditions": "background data in introduction, no reference given, cited from earlier work"}, "CYP3A4/5": {"system": "CYP3A4/5", "conditions": "human liver microsomes and probe substrates; weak inhibition; background data in introduction, no reference given; read-out: half maximal inhibitory concentration; cited from earlier work"}, "[6]": {"experiment": "Safety assessments (AEs, laboratory tests, vital signs, ECG)", "format": "in vivo, human", "conditions": "parts 1 and 2", "procedure": "Safety assessments included adverse events (AEs), clinical laboratory tests (clinical chemistry, hematology, urinalysis), vital signs, 12‐lead electrocardiograms (ECGs), and physical examinations. AEs were recorded from the first dose until study discharge, and at the follow‐up call. Any adverse experiences recorded between the time of informed consent and the first dose were recorded with the medical history. AEs and medications were coded using the Medical Dictionary for Regulatory Activities version 21.1."}, "[7]": {"experiment": "Part 2: plasma and whole blood PK after a single oral 600-mg dose of 14C-ziritaxestat", "format": "in vivo, human", "conditions": "ziritaxestat in plasma, single oral 600 mg 14C-ziritaxestat", "from_the_text": "Part 2 of the study assessed the mass balance, routes of elimination, and metabolite profile of ziritaxestat following a single, oral 600‐mg dose (administered as two 300‐mg active pharmaceutical ingredients‐in‐capsule) of ^14C‐ziritaxestat.\nSubjects were admitted on the evening before dosing (day –1 of part 2), allowing a minimum 7‐day washout in oral drug administration between parts 1 and 2. On the morning of day 1, subjects received a single oral dose of ^14C‐ziritaxestat, equivalent to 600 mg of ziritaxestat. […] Subjects stayed in the clinical study center no longer than day 10 (216 hours after dosing).\nas §1\nTotal radioactivity was measured via liquid scintillation counting, achieving an LLOQ of 306 ng eq/mL (plasma), 216 ng eq/mL (whole blood), 17 ng eq/g (urine), and 161 ng eq/g (feces). Concentrations of parent in plasma were measured using LC‐MS/MS, with an LLOQ of 1.00 ng/mL.\nas §2\nPK analysis was performed using standard noncompartmental methods (Phoenix WinNonlin version 9.4; Pharsight, Certara, Princeton, New Jersey). […] In part 2, the following mass balance parameters were determined: cumulative amount of total radioactivity excreted in urine up to t, cumulative amount of total radioactivity excreted in feces up to t, amount of total radioactivity excreted in urine as a percentage of administered radioactivity, and amount of total radioactivity excreted in feces as a percentage of administered radioactivity. AUC was calculated by the linear up‐logarithmic down‐trapezoid rule, CL was calculated as dose/AUC, Vd(area) was calculated as CL/λz, and F was calculated as dose‐normalized ziritaxestat oral AUC/^14C‐ziritaxestat IV AUC."}, "[8]": {"conditions": "feces, single oral 600 mg 14C-ziritaxestat"}, "[9]": {"conditions": "human, ziritaxestat in plasma, oral 600 mg, n = 6, mean (SD)"}, "[10]": {"conditions": "mean (SD), listed as ziritaxestat"}}, "note": "Entries after “also recorded” stand apart in the source; their conditions may differ.", "data": [{"smiles": "CCc1nc2c(C)cc(N3CCN(CC(=O)O)CC3)cn2c1N(C)c1nc(-c2ccc(F)cc2)c(C#N)s1", "note": "[M533]", "values": [{"measurement": "Mean Feces Region of Interest", "setting": "[1]; [8]", "value": 25.3, "unit": "%"}]}, {"smiles": "CCc1nc2c(C)cc(N3CCN(CC(=O)NCC(=O)O)CC3)cn2c1N(C)c1nc(-c2ccc(F)cc2)c(C#N)s1", "note": "[M590]", "values": [{"measurement": "Mean Feces Region of Interest", "setting": "[1]; [8]", "value": 25.3, "unit": "%"}]}, {"smiles": "CCc1nc2c(C)cc(N3CCN(CC(=O)N4CC(O)C4)CC3)cn2c1N(C)c1nc(-c2ccc(F)cc2)c(C#N)s1", "note": "[Ziritaxestat]", "values": [{"measurement": "CYP1A2 messenger RNA expression (induction potential)", "setting": "CYP1A2", "value": "Increases in messenger RNA expression"}, {"measurement": "fg (fraction of drug surviving gut metabolism)", "setting": "[2]; Fg = F/Fa/Fh", "value": 69, "unit": "%"}, {"measurement": "fh (fraction of drug surviving hepatic elimination)", "setting": "[2]; Fh = 1 - Eh, Eh = ClIV/Qh, Qh 1450 mL/min", "value": 91, "unit": "%"}, {"measurement": "Hepatic extraction ratio (first-pass loss)", "setting": "[2]; human, in vivo", "value": 9, "unit": "%"}, {"measurement": "frem (fraction of drug remaining to be eliminated)", "setting": "[2]; human, in vivo", "value": 14, "unit": "%"}, {"measurement": "CYP3A4 messenger RNA expression (induction potential)", "setting": "CYP3A4 [3]", "value": "Increases in messenger RNA expression"}, {"measurement": "Enzyme primarily responsible for metabolism", "setting": "CYP3A4 [4]", "value": "primarily metabolized by CYP3A4"}, {"measurement": "Contribution to metabolism from other phase 1 enzymes (maximum)", "setting": "CYP3A4 [4]; enzymes other than CYP3A4", "value": "≤ 2.1", "unit": "%"}, {"measurement": "AUC(0-inf)", "setting": "[5]; [9]", "value": 40000, "unit": "ng·h/mL"}, {"measurement": "AUC(0-t)", "setting": "[5]; [9]", "value": 40000, "unit": "ng·h/mL"}, {"measurement": "Cmax", "setting": "[5]; [9]", "value": 8400, "unit": "ng/mL"}, {"measurement": "half-life", "setting": "[5]; [9]", "value": 7, "unit": "h"}, {"measurement": "Tmax", "setting": "[5]; human, ziritaxestat in plasma, oral 600 mg, n = 6, median (range)", "value": 3.25, "unit": "h"}, {"measurement": "F AUCt (absolute bioavailability)", "setting": "[5]; mean (SD)", "value": "54.4 (5.2) %"}, {"measurement": "F AUCt (absolute bioavailability)", "setting": "[5]; [10]", "value": 54, "unit": "%"}, {"measurement": "F AUC∞ (absolute bioavailability)", "setting": "[5]; mean (SD)", "value": "51.1 (4.8) %"}, {"measurement": "F AUC∞ (absolute bioavailability)", "setting": "[5]; [10]", "value": 51, "unit": "%"}, {"measurement": "CL/F", "setting": "[5]; ziritaxestat in plasma, oral 600 mg, n = 6, mean (SD)", "value": "16.3 (4.6) L/h"}, {"measurement": "half maximal inhibitory concentration fold shift", "setting": "CYP2C8; CYP2C8-mediated metabolism, preincubation with ziritaxestat in the absence and presence of NADP, time-dependent inhibition", "value": 2.49}, {"measurement": "IC50", "setting": "CYP2C8; human liver microsomes and probe substrates, weak inhibition, read-out: half maximal inhibitory concentration", "value": 2100, "unit": "nM"}, {"measurement": "IC50", "setting": "CYP3A4/5", "value": 3700, "unit": "nM"}, {"measurement": "Parent as share of total radioactivity (drug-related material) recovered in feces", "setting": "[1]; feces, oral 600 mg 14C-ziritaxestat", "value": 17.6, "unit": "%"}, {"measurement": "Mean Feces Region of Interest", "setting": "[1]; [8]", "value": 17.6, "unit": "%"}, {"measurement": "Share of circulating radioactivity in plasma", "setting": "[1]; plasma, metabolite profile / mass spectrometry analysis, oral 600 mg 14C-ziritaxestat", "value": 76, "unit": "%"}, {"measurement": "Mean Plasma Region of Interest", "setting": "[1]; plasma, single oral 600 mg 14C-ziritaxestat", "value": 76.2}, {"measurement": "Effects on laboratory, vital signs, or ECG parameters", "setting": "[6]", "value": "no clinically meaningful effects"}, {"measurement": "Intensity of TEAEs", "setting": "[6]", "value": "mild"}, {"measurement": "Relation of TEAEs to treatment as assessed by the investigator", "setting": "[6]", "value": "not considered to be related to the study drug; also recorded: not treatment related"}, {"measurement": "Serious AEs or AEs leading to discontinuation or interruption of dosing", "setting": "[6]; healthy male subjects", "value": "no serious AEs or AEs leading to discontinuation or interruption of dosing"}, {"measurement": "Number of treatment-emergent AEs (TEAEs)", "setting": "[6]; reported in 5 subjects", "value": 7}, {"measurement": "AUC(0-inf)", "setting": "[7]; human, n = 5, mean (SD)", "value": 50500, "unit": "ng·h/mL"}, {"measurement": "half-life", "setting": "[7]; human, n = 5, mean (SD)", "value": 10.6, "unit": "h"}, {"measurement": "AUC(0-t)", "setting": "[7]; human, n = 6, mean (SD)", "value": 49100, "unit": "ng·h/mL"}, {"measurement": "Cmax", "setting": "[7]; human, n = 6, mean (SD)", "value": 10700, "unit": "ng/mL"}, {"measurement": "AUC", "setting": "[7]; human, n = 6, mean (SD), read-out: AUC24", "value": 47900, "unit": "ng·h/mL"}, {"measurement": "Tmax", "setting": "[7]; human, n = 6, median (range)", "value": 1.75, "unit": "h"}, {"measurement": "CL/F", "setting": "[7]; n = 5, mean (SD)", "value": "13.2 (4.6) [n = 5] ^c L/h"}]}]}
